Each compound was assayed on calvaria (assay: Inhibition of bone resorption (45Ca release from calvaria stimulated with hPTH (1-34), method of Raisz)). Conditions: 45Ca release, 50 nM hPTH (1-34), 3 days incubation; test concentrations 0.04, 0.2 and 1 μM; mean of 4 pairs; read-out: IC50 (inhibition of bone resorption).
Type: cell-based, new born ICR mouse
Excerpt: The determination of the inhibitory action on the bone resorption was basically in accordance with the method of Raisz [J. Clin. Invest. vol.
A new born ICR mouse (one or two days old) was intraperitoneally administered with 1.5μ Ci ^45 Ca (isotope of calcium as CaCl2 solution) and calvaria was aseptically removed the next day. The calvaria was split into two along the central suture line, and one of them was used as a control and the other was used as a test compound. The calvaria was preincubated at 37° C. for 2 days in BGJb medium [0.5 ml, Fitton-Jackson modification, GIBCO Laboratories, USA, containing bovine serum albumin 1 mg/ml] added with a test compound to the concentrations of 0.04 μM, 0.2 μM and 1 μM and then in the above-mentioned medium containing 50 nM hPTH (1-34) for further 3 days. After the incubation, the ^45 Ca radioactivity in the medium and the bone was determined, and the proportion (%) of ^45 Ca released from the bone into the medium was calculated by the following formula.
Using the bone obtained from the same mouse and treated in the same manner without adding a test compound, as a control, the proportion (%) relative to the control group was determined according to the following formula.

IC50 | Compound
120 nM | COc1ccc(CN2N=C(c3ccc(Cl)cc3)c3ccccc3-n3c(C)nnc32)cc1 [Example 77, 6-(4-Chlorophenyl)-4-(4-methoxybenzyl)-1-methyl-4H-2,3,4,5,10b-pentaazabenz[e]azulene]
540 nM | Cc1nnc2n1-c1ccccc1C(c1ccc(Cl)cc1)=NN2Cc1cccnc1 [Example 98, 6-(4-Chlorophenyl)-1-methyl-4-(pyridin-3-ylmethyl)-4H-2,3,4,5,10b-pentaazabenz[e]azulene]

Same assay, conditions: Mus musculus, 72 h, read-out: IC50 (inhibition of bone resorption)

Compound | IC50
Cc1nnc2n1-c1ccccc1C(c1ccc(Cl)cc1)=NN2Cc1ccc(F)cc1 [Example 59, 6-(4-Chlorophenyl)-4-(4-fluorobenzyl)-1-methyl-4H-2,3,4,5,10b-pentaazabenz[e]azulene] | 680 nM
C=C(Br)CN1N=C(c2ccc(Cl)cc2)c2ccccc2-n2c(C)nnc21 [Example 113, 4-(2-Bromo-2-propenyl)-6-(4-chlorophenyl)-1l-methyl-4H-2,3,4,5,10b-pentaazabenz[e]azulene] | 500 nM
Cc1nnc2n1-c1ccc(Cl)cc1C(c1ccccc1)=NN2Cc1ccncc1 [Example 126, 8-Chloro-1-methyl-6-phenyl-4-(pyridin-4-ylmethyl)-4H-2,3,4,5,10b-pentaazabenz[e]azulene] | 530 nM

Same assay, conditions: Mus musculus, 72 h; 45Ca release, 50 nM hPTH (1-34), 3 days incubation; test concentrations 0.04, 0.2 and 1 μM; mean of 4 pairs; read-out: IC50 (inhibition of bone resorption)

Compound | IC50
COc1ccc(CN2N=C(c3ccc(Cl)cc3)c3ccccc3-n3c(C)nnc32)cc1OC [Example 41, 6-(4-Chlorophenyl)-4-(3,4-dimethoxybenzyl)-1-methyl-4H-2,3,4,5,10b-pentaazabenz[e]azulene] | 800 nM
COc1ccc(CN2N=C(c3ccc(C)cc3)c3ccccc3-n3c(C)nnc32)cc1 [Example 46, 4-(4-Methoxybenzyl)-1-methyl-6-(4-methylphenyl)-4H-2,3,4,5,10b-pentaazabenz[e]azulene] | 420 nM
Cc1nnc2n1-c1ccccc1C(c1ccc(Cl)cc1)=NN2Cc1cc(F)cc(F)c1 [Example 62, 6-(4-Chlorophenyl)-4-(3,5-difluorobenzyl)-1-methyl-4H-2,3,4,5,10b-pentaazbenz[e]azulene] | 710 nM
COc1cc(CN2N=C(c3ccc(Cl)cc3)c3ccccc3-n3c(C)nnc32)cc(OC)c1OC [Example 79, 6-(4-Chlorophenyl)-1-methyl-4-(3,4,5-trimethoxybenzyl)-4H-2,3,4,5,10b-pentaazabenz[e]azulene] | 570 nM
Cc1nnc2n1-c1ccccc1C(c1ccc(Cl)cc1)=NN2Cc1ccc2c(c1)OCO2 [Example 81, 6-(4-Chlorophenyl)-1-methyl-4-(3,4-methylenedioxybenzyl)-4H-2,3,4,5,10b-pentaazabenz[e]azulene] | 590 nM
COc1ccc(CN2N=C(c3ccc(Cl)cc3)c3ccccc3-n3c(C)nnc32)cc1[N+](=O)[O-] [Example 84, 6-(4-Chlorophenyl)-4-(4-methoxy-3-nitrobenzyl)-1-methyl-4H-2,3,4,5,10b-pentaazabenz[e]azulene] | 670 nM
COc1ccc(CN2N=C(c3ccc(Cl)cc3)c3ccccc3-n3c(C)nnc32)cc1Cl [Example 85, 4-(3-Chloro-4-methoxybenzyl)-6-(4-chlorophenyl)-1-methyl-4H-2,3,4,5,10b-pentaazabenz[e]azulene] | 860 nM
Cc1nc(CN2N=C(c3ccc(Cl)cc3)c3ccccc3-n3c(C)nnc32)cs1 [Example 100, 6-(4-Chlorophenyl)-4-(2-methyl-1,3-thiazol-4-ylmethyl)-1-methyl-4H-2,3,4,5,10b-pentaazabenz[e]azulene] | 710 nM
Cc1nnc2n1-c1ccccc1C(c1ccc(Cl)cc1)=NN2CC1CC1 [Example 106, 6-(4-Chlorophenyl)-4-cyclopropylmethyl-1-methyl-4H-2,3,4,5,10b-pentaazabenz[e]azulene] | 830 nM
C=C(C)CN1N=C(c2ccc(Cl)cc2)c2ccccc2-n2c(C)nnc21 [Example 111, 6-(4-Chlorophenyl)-1-methyl-4-(2-methyl-2-propenyl)-4H-2,3,4,5,10b-pentaazabenz[e]azulene] | 510 nM
C=C(Cl)CN1N=C(c2ccc(Cl)cc2)c2ccccc2-n2c(C)nnc21 [Example 112, 6-(4-Chlorophenyl)-4-(2-chloro-2-propenyl)-1l-methyl-4H-2,3,4,5,10b-pentaazabenz[e]azulene] | 380 nM
Cc1nnc2n1-c1ccccc1C(c1ccc(Cl)cc1)=NN2Cc1ccc(S(C)(=O)=O)cc1 [Example 121, 6-(4-Chlorophenyl)-1-methyl-4-(4-methylsulfonylbenzyl)-4H-2,3,4,5,10b-pentaazabenz[e]azulene] | 140 nM
Cc1nnc2n1-c1ccccc1C(c1ccc(Cl)cc1)=NN2Cc1ccc([N+](=O)[O-])cc1 [Example 122, 6-(4-Chlorophenyl)-1-methyl-4-(4-nitrobenzyl)-4H-2,3,4,5,10b-pentaazabenz[e]azulene] | 720 nM
Cc1nnc2n1-c1ccccc1C(c1ccc(Cl)cc1)=NN2Cc1cc(Cl)nc(Cl)c1 [Example 123, 6-(4-Chlorophenyl)-4-(2,6-dichloropyridin-4-ylmethyl)-1-methyl-4H-2,3,4,5,10b-pentaazabenz[e]azulene] | 650 nM
Cc1nnc2n1-c1ccccc1C(c1ccccc1)=NN2Cc1cccnc1 [Example 128, 1-Methyl-6-phenyl-4-(pyridin-3-ylmethyl)-4H-2,3,4,5,10b-pentaazabenz[e]azulene] | 930 nM
Cc1nnc2n1-c1ccccc1C(c1ccccc1)=NN2Cc1ccncc1 [Example 129, 1-Methyl-6-phenyl-4-(pyridin-4-ylmethyl)-4H-2,3,4,5,10b-pentaazabenz[e]azulene] | 780 nM
Cc1nnc2n1-c1ccc([N+](=O)[O-])cc1C(c1ccccc1)=NN2Cc1ccncc1 [Example 134, 1-Methyl-8-nitro-6-phenyl-4-(pyridin-4-ylmethyl)-4H-2,3,4,5,10b-pentaazabenz[e]azulene] | 180 nM
Cc1ccc(C2=NN(Cc3ccncc3)c3nnc(C)n3-c3ccccc32)cc1 [Example 135, 1-Methyl-6-(4-methylphenyl)-4-(pyridin-4-ylmethyl)-4H-2,3,4,5,10b-pentaazabenz[e]azulene] | 410 nM
Cc1ccc(C2=NN(Cc3cccc(C#N)c3)c3nnc(C)n3-c3ccccc32)cc1 [Example 136, 4-(3-Cyanobenzyl)-1-methyl-6-(4-methylphenyl)-4H-2,3,4,5,10b-pentaazabenz [e]azulene] | 590 nM
Cc1sc2c(c1C)C(c1ccc(Cl)cc1)=NN(Cc1cccnc1)c1nnc(C)n1-2 [Example 139, 4-(4-Chlorophenyl)-2,3,9-trimethyl-6-(pyridin-3-ylmethyl)-6H-5,6,7,8,9a-pentaazathien[2,3-e]azulene] | 18 nM
Cc1sc2c(c1C)C(c1ccc(Cl)cc1)=NN(Cc1ccncc1)c1nnc(C)n1-2 [Example 140, 4-(4-Chlorophenyl)-2,3,9-trimethyl-6-(pyridin-4-ylmethyl)-6H-5,6,7,8,9a-pentaazathien[2,3-e]azulene] | 50 nM

Continued, values first:

IC50 | Compound
120 nM | COc1ccc(CN2N=C(c3ccc(Cl)cc3)c3ccccc3-n3c(C)nnc32)cc1 [Example 40, 6-(4-Chlorophenyl)-4-(4-methoxybenzyl)-1-methyl-4H-2,3,4,5,10b-pentaazabenz[e]azulene]
250 nM | Cc1nnc2n1-c1ccccc1C(c1ccc(Cl)cc1)=NN2Cc1cccc(C#N)c1 [Example 56, 6-(4-Chlorophenyl)-4-(3-cyanobenzyl)-1-methyl-4H-2,3,4,5,10b-pentaazabenz[e]azulene]
720 nM | Cc1nnc2n1-c1ccccc1C(c1ccc(Cl)cc1)=NN2Cc1ccccc1F [Example 57, 6-(4-Chlorophenyl)-4-(2-fluorobenzyl)-1-methyl-4H-2,3,4,5,10b-pentaazabenz[e]azulene]
430 nM | Cc1nnc2n1-c1ccccc1C(c1ccc(Cl)cc1)=NN2Cc1cccc(F)c1 [Example 58, 6-(4-Chlorophenyl)-4-(3-fluorobenzyl)-1-methyl-4H-2,3,4,5,10b-pentaazabenz[e]azulene]
810 nM | Cc1nnc2n1-c1ccccc1C(c1ccc(Cl)cc1)=NN2Cc1cc(F)ccc1F [Example 61, 6-(4-Chlorophenyl)-4-(2,5-difluorobenzyl)-1-methyl-4H-2,3,4,5,10b-pentaazabenz[e]azulene]
740 nM | Cc1nnc2n1-c1ccccc1C(c1ccc(Cl)cc1)=NN2Cc1ccc(F)c(F)c1 [Example 63, 6-(4-Chlorophenyl)-4-(3,4-difluorobenzyl)-1-methyl-4H-2,3,4,5,10b-pentaazabenz[e]azulene]
330 nM | Cc1nnc2n1-c1ccccc1C(c1ccc(Cl)cc1)=NN2Cc1cccc([N+](=O)[O-])c1 [Example 68, 6-(4-Chlorophenyl)-1-methyl-4-(3-nitrobenzyl)-4H-2,3,4,5,10b-pentaazabenz[e]azulene]
640 nM | Cc1nnc2n1-c1ccccc1C(c1ccc(Cl)cc1)=NN2Cc1cccc(Cl)c1 [Example 70, 4-(3-Chlorobenzyl)-6-(4-chlorophenyl)-1-methyl-4H-2,3,4,5,10b-pentaazabenz[e]azulene]
430 nM | Cc1nnc2n1-c1ccccc1C(c1ccc(Cl)cc1)=NN2Cc1ccc(C#N)cc1 [Example 74, 6-(4-Chlorophenyl)-4-(4-cyanobenzyl)-1-methyl-4H-2,3,4,5,10b-pentaazabenz[e]azulene]
560 nM | COc1cccc(CN2N=C(c3ccc(Cl)cc3)c3ccccc3-n3c(C)nnc32)c1 [Example 76, 6-(4-Chlorophenyl)-4-(3-methoxybenzyl)-1-methyl-4H-2,3,4,5,10b-pentaazabenz[e]azulene]
590 nM | Cc1cccc(CN2N=C(c3ccc(Cl)cc3)c3ccccc3-n3c(C)nnc32)c1 [Example 88, 6-(4-Chlorophenyl)-1-methyl-4-(3-methylbenzyl)-4H-2,3,4,5,10b-pentaazabenz[e]azulene]
560 nM | Cc1nnc2n1-c1ccccc1C(c1ccc(Cl)cc1)=NN2Cc1ccccc1 [Example 94, 4-Benzyl-6-(4-chlorophenyl)-1-methyl-4H-2,3,4,5,10b-pentaazabenz[e]azulene]
220 nM | Cc1nnc2n1-c1ccccc1C(c1ccc(Cl)cc1)=NN2Cc1ccncc1 [Example 120, 6(4-Chlorophenyl)-1-methyl-4-(pyridin-4-ylmethyl)-4H-2,3,4,5,10b-pentaazabenz[e]azulene]
